Measured values from patent US6872852B2, “Polyamine analogues as cytotoxic agents” (MediQuest Therapeutics, Inc., priority 2000, dated 2005).

What was measured:
MDA-MB-231 cells [1] = assay: Cytotoxicity, MTS assay after 3 days; assay type: cell-based, human; conditions: for IC50: 3 days incubation, MTS, determined by the inventors, read-out: IC50 against MDA cells
Method: After a total of 3-days, cell growth was evaluated by MTS assay (Promega).

BALB/c mice [2] = assay: Acute toxicity, single i.p. injection
Method: (§2) Chronic toxicities were evaluated by giving i.p. injections once daily for 5 consecutive days.

[3] = test system: cellular polyamine levels; assay: Intracellular polyamine levels by HPLC; assay type: cell-based; conditions: 11 hr treatment
Method: To determine the effects of treatment with polyamine analogues on cellular polyamine levels, intracellular polyamine levels were measured by high performance liquid chromatography (HPLC) after 11 hr treatment with ORI 1313 (32 μM) or ORI 1327 (3 μM). […] This observation is consistent with the previous observations in the field.

[4] = test system: A375 human melanoma xenografts; assay: A375 human melanoma xenograft in nude mice; assay type: in vivo
Method: ORI was tested in a melanoma tumor xenograft tumor models in BALB/c nude mice. […] The xenograft efficacy study would be performed with two drug concentrations. There were four groups of 10 mice. Treatment groups received the maximum tolerated dose (MTD) or ½ MTD of each analogue. […] A positive control group treated with dacarbazine DTIC (dosage of 180 mg/kg i.p. once per day for 5 days) was used to validate this tumor model system.
Female BALB/c nu/nu athymic mice weighing 20 grams were the animal host for the human xenografts. The method of administration was i.p. injections with 9 mM or 4 mM ORI 1313 once daily for the duration of the study (end point when control tumors reached 2000 mg). […] DITC was administered by i.p. injection once daily for 5 days. Treatment started when the tumors reach 5 mm×5 mm size (50 mg). The mouse weight and tumor size were measured twice weekly. The tumor measurements by calipers were then converted to mg tumor volume by the formula L^2×W/2. Once the control tumors reached 2000 mg both the control and treatment group mice were weighed, sacrificed and the tumors removed. The actual weights of tumors were then used to calculate the percent growth inhibition by each analogue using the formula: % growth inhibition=(mean treated tumor weight/mean control tumor weight×100)−100.

[5] = test system: A375 human melanoma cell line; assay: Cytotoxicity against A375 cell line; assay type: cell-based
BALB/c mice [6] = assay: Chronic toxicity, i.p. once daily for 5 consecutive days
Method: as §2

BALB/c mice [7] = conditions: mouse, in vivo, ip
Method: as §2

SK-MEL-5 cells = assay: Cytotoxicity, MTS assay after 3 days; assay type: cell-based; conditions: 3 days incubation, read-out: IC50 against SK-MEL-5 cells
Method: Briefly, cells were plated at 1500 (SK-MEL-5) or 5000 (MDA) cells/well in a 96-well plate and allowed to adhere for 1 day. The indicated analogues were added and the cells were incubated for 3 days, when cell growth was evaluated by MTS assay (Promega). Vertical axis represents cell number as a % of no drug treatment controls. Additionally, significant activity was seen against PC-3 cells (see FIGS. 4 and 11).

melanoma cell lines = assay: NCI 60-cell line screen; assay type: cell-based; conditions: 8 melanoma lines
Method: (§1) ORI 1313 and ORI 1327 were evaluated by the National Cancer Institute (NCI) with a 60-cell line screen.

cell growth = assay: Co-treatment experiments on analogue cytotoxicity; assay type: cell-based; conditions: for effect of co-treatment with DFMO on results: 1 mM DFMO; for effect of co-treatment with putrescine on cytotoxic effects: 50-fold excess concentration of putrescine; for effect of co-treatment with ORI 1202 on inhibition of cell growth: polyamine transport inhibitor ORI 1202
MDA-MB-231 cells [8] = assay: Cell cycle analysis by FACS (propidium iodide), apoptotic fraction; assay type: cell-based, human
Method: Cell cycle analysis was performed using fluorescent activated cell sorter (FACS) analysis on polyamine analogue treated MDA cells (see FIGS. 7A-7C). Briefly, MDA-MB-231 cells were grown in the presence of ORI 1313 or ORI 1327 for various times then fixed with ethanol and stained with propidium iodide. Cells were analyzed by FACS, with the areas on the histograms designating DNA content and cell cycle stage: M1, G1; M2, S; M3, G2/M; M4, <2N (apoptotic cells).

[9] = test system: MES-SA/Dx5 uterine sarcoma cell line; assay: Growth inhibition of multi-drug resistant cells, MTS assay; assay type: cell-based, human; conditions: inferred from parent vs MDR-1 expressing line
Method: An unexpected observation made during the cellular characterization of ORI 1313 and ORI 1327 was their growth inhibitory activity against the multi-drug resistant (MDR) uterine sarcoma cell line, MES-SA/Dx5 (see FIGS. 8A and 8B). Briefly, cells were plated at 1000 cells/well in a 96-well plate and allowed to adhere for 1 day. The indicated analogue was added and the cells were incubated for 3 days when cell growth was evaluated by MTS assay (Promega). Vertical axis represents cell number as a % of no drug treatment controls
The MES-SA/Dx5 cell line was developed by selection on doxorubicin and over-expresses the mRNA of the multi-drug resistance gene (MDR-1). The cells are thus much less sensitive to drugs exported via P-glycoprotein (P-gp). See Harker, W. G. et al. Multi-drug (pleiotropic) resistance in doxorubicin-selected variants of the human sarcoma cell line MES-SA. Cancer Research, 1985, 45, 4091-4096. […] This will be particularly advantageous in situations involving target cells expressing MDR-1.

[10] = test system: putrescine uptake into PC-3 cells; assay: Inhibition of 3H-putrescine uptake; assay type: cell-based, human; conditions: read-out: Kiapp versus putrescine uptake into PC-3 cells
MDA cells = assay: NCI 60-cell line screen; assay type: cell-based, human; conditions: determined by NCI
Method: as §1

PC-3 cells [11] = assay: NCI 60-cell line screen; assay type: cell-based, human; conditions: determined by NCI
Method: as §1

BALB/c mice [12] = conditions: mouse, in vivo, ip; remark: listed apart in the source
Method: as §2

PC-3 cells [13] = assay: Cytotoxicity / cell growth, MTS assay; assay type: cell-based, human; conditions: for inhibition of growth of PC-3 cells: 3 days; for IC50: determined by the present inventors
Method: Involvement of the pro-apoptotic caspase-3 enzyme in the action of OR 1313 is shown by the experiment represented in FIG. 10. Briefly, PC-3 cells were plated at 1000 cells/well in a 96-well plate and allowed to adhere for 1 day. 10 μM of ORI 1313 and 0, 5, or 15 μM Z-DEVD-fmk, a caspase inhibitor, were added and the cells were incubated for 3 days. Cell growth was evaluated by MTS assay (Promega). Vertical axis represents cell number as a % of no drug treatment controls.

[14] = test system: putrescine uptake into MDA cells; assay: Inhibition of 3H-putrescine uptake; assay type: cell-based, human; conditions: read-out: Kiapp versus putrescine uptake into MDA cells
[15] = test system: [1,4-14C]-putrescine uptake; conditions: Frydman et al.; cited from earlier work
[16] = test system: putrescine uptake into MDA cells; conditions: read-out: Km for uptake into MDA cells; previously shown; cited from earlier work

| Compound | IC50 (MDA-MB-231 cells [1]) [µM] | dose that caused death, acute (BALB/c mice [2]) [mg/kg] | lethal dosage, chronic (BALB/c mice [6]) [mg/kg] | tolerated dose, acute (BALB/c mice [7]) [mg/kg] | IC50 (SK-MEL-5 cells) [µM] | increase over N1,N4-dibenzylputrescine in potency of cytotoxic activity against MDA cells (MDA-MB-231 cells [1]) [fold] | effect of co-treatment with DFMO on results (cell growth) | effect of co-treatment with putrescine on cytotoxic effects (cell growth) | effect of co-treatment with ORI 1202 on inhibition of cell growth (cell growth) | substrate for the P-gp multi-drug exporter [9] | Ki [10] [µM] | IC50 (MDA cells) [µM] | IC50 (PC-3 cells [11]) [µM] | approximate maximum tolerated dosage (BALB/c mice [12]) [mg/kg] | tolerated dose, chronic (BALB/c mice [12]) [mg/kg] | IC50 (PC-3 cells [13]) [µM] | also measured |
| --- | --- | --- | --- | --- | --- | --- | --- | --- | --- | --- | --- | --- | --- | --- | --- | --- | --- |
| c1ccc(CNCCCNCc2ccccc2)cc1 [N^1, N^3-dibenzyl analog of 1,3-diaminopropane, reference compound] | 28.8 |  |  |  |  |  |  |  |  |  |  |  |  |  |  |  |  |
| c1ccc2c(CNCCCCNCc3cccc4ccccc34)cccc2c1 [ORI 1313] | 12 | 186 | 80 | 93 | 4.1 | 16 | did not alter | did not block | did not alter | not substrates | 24.1 | 2.3 | 11.2 | ~40 | 40 | 20 | effect on cellular polyamine levels ([3]; 32 μM): no significant effects; adverse findings in xenograft study ([4]; after 7 weeks of treatment): transient skin ulceration and weight loss; tumor growth inhibition ([4]; at 25 days, vs 5% dextrose control, i.p. once daily): 36%; tolerability in xenograft study ([4]; i.p. once daily, nude mice): well tolerated up to 7 weeks; tumor growth delay ([4]; vs 5% dextrose control, i.p. once daily): 6.2 days; IC50 [5]: 4.1 µM; effectiveness against melanoma cell lines tested (melanoma cell lines): 6 of 8; solubility (dihydrochloride salt, in 5% DMSO): at least 40 mM; <2N DNA content (apoptotic fraction) (MDA-MB-231 cells [8]; 32 μM, 11 hr treatment): 21%; <2N DNA content (apoptotic fraction) (MDA-MB-231 cells [8]; 32 μM, 24 hr treatment): 49%; <2N DNA content (apoptotic fraction) (MDA-MB-231 cells [8]; 32 μM, 48 hr treatment): 30%; inhibition of growth of PC-3 cells (PC-3 cells [13]; 10 μM ORI 1313 + 5 μM Z-DEVD-fmk): 19%; inhibition of growth of PC-3 cells (PC-3 cells [13]; 10 μM ORI 1313 + 15 μM Z-DEVD-fmk): 10%; inhibition of growth of PC-3 cells (PC-3 cells [13]; 10 μM ORI 1313 alone): 46%; Ki [14]: 28.3 µM |
| c1ccc(N(c2ccccc2)c2ccc(CNCCCCNCc3ccc(N(c4ccccc4)c4ccccc4)cc3)cc2)cc1 [ORI 1327] | 0.65 | 75 | 30 | 37 | 0.71 | 295 | did not alter | did not block | did not alter | not substrates | 14.3 | 0.005 | 0.81 | ~7.5 | 7.5 | 0.65 | effect on cellular polyamine levels ([3]; 3 μM): no significant effects; solubility relative to lactate salt (dihydrochloride salt): less soluble; solution concentration produced (hydroxypropyl-β-cyclodextrin, 45% w/v HβC in H2O): 40 mM; maximum solubility (lactate salt, aqueous): 5000 µM; <2N DNA content (apoptotic fraction) (MDA-MB-231 cells [8]; 3 μM, 11 hr treatment): 15% |
| NCCCCN [Putrescine, 1,4-diaminobutane] |  |  |  |  |  |  |  |  |  |  |  |  |  |  |  |  | Kmapp, putrescine uptake [15]: 5.2 ± 0.6 µM; Km [16]: 12.4 µM |
